Columns and labels:
[1] = system: adenosine deaminase (ADA); conditions: EHNA 2×10^-8 M continuous influx; ADA 10^-7 M; 33 mM ammonium acetate; release by 25 μL MeOH, three cases
Method: At about 10 min, 25 μL of MeOH is injected into the binding chamber resulting in an increase in EHNA--the first peak on the left. This signal is due to an enhanced sensitivity of the detector to EHNA in the presence of MeOH and/or due to release of non-specifically bound EHNA from the device and its parts. At about 40 min, the receptor ADA, in 33 mM ammonium acetate buffer, is introduced into the binding chamber until a receptor concentration of 10^-7 M is reached. […] At about 90 min, 25 μL of MeOH is again introduced to perturb binding and release of EHNA is observed. […] This process is repeated a third time at about 180 min. […] At about 230 min the ADA is removed from the binding chamber by opening the binding chamber wash port 9.

[2] = biological target: adenosine deaminase (ADA); conditions: cited from earlier work
[3] = biological target: T1, Calf intestinal adenosine deaminase (Bos taurus, UniProt P56658); test: Selective identification of adenosine deaminase binders from a synthetic library of EHNA-type analogs (ultrafiltration, electrospray MS); format: binding; conditions: for detected eluting from the device in the recovery phase: scan mode, positive ion electrospray MS, ADA 7.35 μM, approximately 10 nM each analog, pH 7.4, methanol/water 90:10; for presence of ion in the recovery phase in the presence of ADA / binding to ADA in the presence of a five-fold excess of EHNA: single ion monitoring mode; for presence of ion in the recovery phase in the presence of ADA: with ADA (FIG. 11B); for binding to ADA in the presence of a five-fold excess of EHNA: with ADA and five-fold excess of authentic EHNA (FIG. 11C)
T1 sequence (P56658 1-363): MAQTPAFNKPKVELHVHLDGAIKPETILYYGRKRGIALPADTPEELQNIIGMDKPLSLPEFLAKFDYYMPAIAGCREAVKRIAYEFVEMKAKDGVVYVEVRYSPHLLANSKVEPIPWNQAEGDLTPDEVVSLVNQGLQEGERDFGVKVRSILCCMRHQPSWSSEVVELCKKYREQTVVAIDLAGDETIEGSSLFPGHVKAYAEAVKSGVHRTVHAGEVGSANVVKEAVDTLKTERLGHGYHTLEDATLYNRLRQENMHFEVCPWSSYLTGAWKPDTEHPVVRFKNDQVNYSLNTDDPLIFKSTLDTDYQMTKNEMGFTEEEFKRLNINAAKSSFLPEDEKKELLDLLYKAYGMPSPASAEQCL

[4] = biological target: T1, Calf intestinal adenosine deaminase
Method: Calf intestinal adenosine deaminase (or another type of adenosine deaminase) is loaded into the molecular diversity screening device (equipped with a 10,000 molecular weight cutoff membrane) to a concentration of approximately 10 nM. A library of 20 adenosine analogs was prepared including the natural substrate for adenosine deaminase, adenosine (See list of compounds in Table 1).
Next, the adenosine analog library was mixed with adenosine deaminase (in a 1:1 molar ratio) in 33 mM ammonium acetate buffer at pH 7.4, and an aliquot was injected into the molecular diversity screening device to achieve a concentration of adenosine deaminase of approximately 10 nM. After flushing the binding chamber with water at 100 μL/min for 12 min, to wash out library compounds with low affinity for adenosine deaminase, methanol/water (50:50) was pumped through the chamber at 50 μL/min. The latter procedure should perturb binding of any remaining compounds bound to the adenosine deaminase and release them into the detector.

serum albumin = conditions: albumin-pentachlorophenol; read-out: dissociation constant; cited from earlier work
bovine serum albumin = test: Extraction of pentachlorophenol by bovine serum albumin in the molecular diversity screening device (pulsed ultrafiltration, electrospray MS); format: binding
Method: The receptor concentration is chosen to be about 100 times the smallest dissociation constant being sought. […] The binding chamber is then washed with binding buffer (i.e., 100 Mm ammonium acetate at Ph 7.4) at 100 μL/min to wash out any low molecular weight impurities. The compound, in this case pentachlorophenol (equimolar or less with respect to the serum albumin in the binding chamber) is then injected into the binding chamber, and elution of pentachlorophenol is monitored using an appropriate detector such as UV absorbance or an electrospray mass spectrometer. An example of the extraction of pentachlorophenol from a binding buffer by bovine serum albumin is shown in FIG. 7 using electrospray mass spectrometric detection.
When pentachlorophenol is injected into the binding chamber without serum albumin present, an abundant peak is detected by the mass spectrometer as pentachlorophenol flows through the device unimpeded (FIG. 7, solid curve). […] Retention of pentachlorophenol in the binding chamber corresponds to tight binding to serum albumin under the predicted concentrations.

Compound | detected eluting from the device in the recovery phase [3] | presence of ion in the recovery phase in the presence of ADA [3] | binding to ADA in the presence of a five-fold excess of EHNA [3] | further results
CCCCCC[C@H]([C@H](C)O)n1cnc2c(N)ncnc21 (relative stereo) [EHNA, erythro-9-(2-hydroxy-3-nonyl)adenine] | detected | present |  | binding to and release from ADA [1]: released after being bound to the ADA; Kd ([2]; read-out: dissociation constant, North, et al., 1979): 7 nM; Ki ([2]; read-out: inhibitor dissociation constant, potent inhibitor of adenosine deaminase, no source given): 2 nM; detected eluting from the binding chamber on release with methanol/water (50:50) ([4]; ADA approximately 10 nM, 33 mM ammonium acetate pH 7.4, EHNA at 20-fold lower concentration than other compounds): detected; affinity for adenosine deaminase within the library ([4]; library of 20 adenosine analogs): highest affinity
Oc1c(Cl)c(Cl)c(Cl)c(Cl)c1Cl [pentachlorophenol] |  |  |  | Kd (serum albumin): ~10 nM; extraction from the solution by the albumin receptor molecule (bovine serum albumin; 100 mM ammonium acetate pH 7.4, unstirred 100 μL chamber, albumin approximately 1 μM): almost completely extracted; pentachlorophenol detected by the mass spectrometer after injection with albumin loaded (bovine serum albumin; bovine serum albumin in chamber (FIG. 7, dashed curve)): only a trace

More lines, main results first:

detected eluting from the device in the recovery phase [3] | presence of ion in the recovery phase in the presence of ADA [3] | binding to ADA in the presence of a five-fold excess of EHNA [3] | Compound | further results
not detected | did not appear |  | CC(O)C(Cc1ccccc1)n1cnc2c(N)ncnc21 (centres unmarked) [benzylic] | 
not detected | did not appear |  | CC(C)CC(C(C)O)n1cnc2c(N)ncnc21 (centres unmarked) [isobutyl] | 
detected | present | suppressed | CCCCCCCCC(C(C)O)n1cnc2c(N)ncnc21 (centres unmarked) [nC7 H15] | 
detected | present | suppressed | CCCCCCCCCCC(C(C)O)n1cnc2c(N)ncnc21 (centres unmarked) [nC10 H21] | 

From patent US5872015A, “Molecular diversity screening method” (Board of Trustees of the University of Illinois, priority 1996, dated 1999)
